Measurements published in patent publication US4704395A, “Cyclic ether esters of 2-substituted-6-(substituted and unsubstituted) dihydrolysergic acid useful as 5HT receptor antagonists” (Eli Lilly and Company, priority 1985, dated 1987).

biological target: T1, 5HT2 receptors (Rattus norvegicus, UniProt P14842); test: Apparent dissociation constants (KB) for 5HT2 receptors determined in the rat jugular vein (antagonism of serotonin contraction); details: antagonist incubated one hour, 37° C., maleate salt, read-out: Apparent Dissociation Constants for 5HT2 receptors, -Log Kb ± S.E. (converted)
T1 construct: their external jugular veins and thoracic aortas dissected free of connective tissue; from tissue; host or cells: external jugular vein of male Wistar rats
Experimental: An initial optimum resting force of 1 and 4 g was applied to the jugular vein and aorta, respectively. […] Exp. Ther., 205, 400 (1978). Alpha receptor antagonist activity was evaluated in the aorta.

T1 sequence (P14842 whole entry): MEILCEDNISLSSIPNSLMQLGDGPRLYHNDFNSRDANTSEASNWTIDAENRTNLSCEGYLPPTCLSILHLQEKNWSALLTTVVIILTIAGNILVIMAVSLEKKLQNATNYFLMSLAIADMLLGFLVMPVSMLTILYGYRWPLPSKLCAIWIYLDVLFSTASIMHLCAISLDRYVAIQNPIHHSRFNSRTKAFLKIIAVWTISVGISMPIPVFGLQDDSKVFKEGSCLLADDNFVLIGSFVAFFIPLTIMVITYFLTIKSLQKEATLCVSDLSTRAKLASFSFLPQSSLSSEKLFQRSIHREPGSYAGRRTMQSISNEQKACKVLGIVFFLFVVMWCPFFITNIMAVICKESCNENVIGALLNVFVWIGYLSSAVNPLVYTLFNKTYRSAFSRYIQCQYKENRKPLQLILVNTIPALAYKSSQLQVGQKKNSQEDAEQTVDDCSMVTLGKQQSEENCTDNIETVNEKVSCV

CC(C)n1cc2c3c(cccc31)[C@H]1C[C@@H](C(=O)OCCCC3CCCO3)CN(C)[C@@H]1C2 (stereo partly shown) and CC(C)n1cc2c3c(cccc31)[C@H]1C[C@@H](C(=O)OCC3CCCO3)CN(C)[C@@H]1C2 (stereo partly shown) are within 1.5-fold of each other in Kb: 5.62 nM for the first, 6.31 nM for the second.

First: CC(C)n1cc2c3c(cccc31)[C@H]1C[C@@H](C(=O)OCC3CCCCO3)CN(C)[C@@H]1C2 (stereo partly shown)
Second: CC(C)n1cc2c3c(cccc31)[C@H]1C[C@@H](C(=O)OC3CCOCC3)CN(C)[C@@H]1C2
The Kb of the first is 15-fold higher: 1.91 nM for the first, 0.129 nM for the second.
